Test results as given in patent US10392412B2, “Platinum anticancer agents” (THE REGENTS OF THE UNIVERSITY OF CALIFORNIA, priority 2015, dated 2019).
Entries after “also recorded” stand apart in the source; their conditions may differ. Read-outs that look alike come from different tables or passages of the source.

How the values were obtained:
RMS13 cells = assay: Cytotoxicity CellTiter-Glo; assay type: cell-based, human; conditions: RMS13, Rhabdomyosarcoma
[1] = test system: RMS13 rhabdomyosarcoma xenografts; assay: RMS13 rhabdomyosarcoma xenograft in nu/nu mice; assay type: in vivo, mouse; conditions: for tumor volume / tumor growth: RMS13 rhabdomyosarcoma xenograft, 5 mg/kg i.v. once a week for 4 weeks
Method: The xenograft studies were performed by subcutaneous injection of SK-N-DZ (neuroblastoma, 30×10^6 cells/animal) and RMS13 (rhabdomyosarcoma, 20×10^6 cells/animal) in right flank of the male Charles River Laboratories nu/nu mice (7-8 weeks old, weight ˜20 g). Mice were treated by intravenous tail vein injection once a week for 4 weeks. The tumor sizes and body weights were monitored twice a week. Tumor volumes were calculated according to the following formula: volume=height×[…]×length×0.5236.

OVCAR2 cells = assay: Cytotoxicity CellTiter-Glo; assay type: cell-based, human; conditions: read-out: IC50 (50% growth inhibition); OVCAR2, Ovary; 72 hours
AsPC1 cells = assay: Cytotoxicity CellTiter-Glo; assay type: cell-based, human; conditions: read-out: IC50 (50% growth inhibition); AsPC1, Pancreas; 72 hours
Method: (§1) Human cancer cell lines were purchased from UCSF Cell Culture Facility (CCF) or obtained through Material Transfer.
(§2) The range of platinum concentrations used in the studies are 5 μM-100 μM. After 72 hours of treatment, the medium were removed and replaced with 50 μL of the media plus 50 μL of the CellTiterGlo reagent. The number of viable cells in culture will be determined based on quantitation of the ATP present, which is an indicator of the number of active cells. Concentration response graphs were generated for each compound using GraphPad Prism software. The graphs were analyzed using a curve fit for sigmoid dose-response, and IC50 values were derived. The results were expressed as mean IC50 values with the standard error of the mean.

H226 cells = assay: Cytotoxicity CellTiter-Glo; assay type: cell-based, human; conditions: read-out: IC50 (50% growth inhibition); H226, Non-small cell squamous; 72 hours
Method: as §1, §2

DU145 cells = assay: Cytotoxicity CellTiter-Glo; assay type: cell-based, human; conditions: read-out: IC50 (50% growth inhibition); DU145, Prostate; 72 hours
Method: as §1, §2

HT29 cells = assay: Cytotoxicity CellTiter-Glo; assay type: cell-based, human; conditions: read-out: IC50 (50% growth inhibition); HT29, Colon; 72 hours
Method: as §1, §2

A549 cells = assay: Cytotoxicity CellTiter-Glo; assay type: cell-based, human; conditions: read-out: IC50 (50% growth inhibition); A549, Non-small cell lung; 72 hours
Method: as §1, §2

HCT116 cells = assay: Cytotoxicity CellTiter-Glo; assay type: cell-based, human; conditions: read-out: IC50 (50% growth inhibition); HCT116, Colon; 72 hours
Method: as §1, §2

PC3 cells = assay: Cytotoxicity CellTiter-Glo; assay type: cell-based, human; conditions: read-out: IC50 (50% growth inhibition); PC3, Prostate; 72 hours
Method: as §1, §2

SNB75 cells = assay: Cytotoxicity CellTiter-Glo; assay type: cell-based, human

[Pt(DMSO)methotrexate(Cl)] [SM-69]
GI50 (RMS13 cells): 4.1 ± 2.3 µM | IC50 (RMS13 cells; read-out: IC50 (50% growth inhibition), 72 hours): 4.1 ± 2.3 µM | tumor volume / tumor growth ([1]; 5 mg/kg): significantly different compared with other groups; also recorded: significantly lower compared with SM-70 | tumor volume / tumor growth ([1]; listed as AT-69, 5 mg/kg): significantly reduces RMS tumor growth; also recorded: inhibited tumor growth; also recorded: more potent than cisplatin | survival ([1]; RMS13 xenograft model, 5 mpk, listed as AT-69, 5 mg/kg): significantly increase survival; also recorded: increase survival rate; also recorded: significantly increased rate of survival | IC50 (OVCAR2 cells): 3.3 ± 1.6 µM | IC50 (AsPC1 cells): 7 ± 0.4 µM | IC50 (H226 cells): 16.4 ± 13.1 µM | IC50 (DU145 cells): 1.5 ± 0.2 µM | IC50 (HT29 cells): 5.9 ± 1.6 µM | IC50 (A549 cells): 1.2 ± 0.7 µM | IC50 (HCT116 cells): 4.8 ± 0.6 µM | IC50 (PC3 cells): 6.3 ± 1.5 µM | IC50 (SNB75 cells; read-out: IC50 (50% growth inhibition), SNB75, Brain, 72 hours): 6.1 ± 4.6 µM | IC50 (SNB75 cells; read-out: IC50 ± S.D. (50% growth inhibition), SNB75, Brain - High grade, + 1 mM Folic Acid): 46.3 ± 20.2 µM | IC50 (SNB75 cells; read-out: IC50 ± S.D. (50% growth inhibition), SNB75, Brain - High grade, two independent experiments): 8.7 ± 6.4 µM
